Assays:
TREK-1 channel = target: T1, TREK-1 channel (Homo sapiens, UniProt O95069); assay: Whole-cell patch clamp of TREK-1 channel activity in transfected COS-7 cells; type: cell-based; details: activation by 10 μM arachidonic acid alone (baseline 31 pA/pF)
T1 construct: expressed in transfected cells; host or cells: COS-7 cells (ATCC CRL-1651), DEAE-dextran transfection
T1 sequence (O95069 1-426): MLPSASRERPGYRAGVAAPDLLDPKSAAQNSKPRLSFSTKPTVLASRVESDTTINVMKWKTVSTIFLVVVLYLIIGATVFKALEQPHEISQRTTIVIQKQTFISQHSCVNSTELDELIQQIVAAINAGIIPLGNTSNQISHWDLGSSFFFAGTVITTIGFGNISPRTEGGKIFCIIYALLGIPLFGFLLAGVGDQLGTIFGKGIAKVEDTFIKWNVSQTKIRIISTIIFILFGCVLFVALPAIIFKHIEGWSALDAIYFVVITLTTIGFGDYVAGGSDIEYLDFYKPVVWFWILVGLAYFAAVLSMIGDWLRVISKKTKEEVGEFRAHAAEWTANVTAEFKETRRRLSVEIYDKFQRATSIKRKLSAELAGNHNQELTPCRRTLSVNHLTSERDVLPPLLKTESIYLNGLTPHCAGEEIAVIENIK
Protocol: All the experiments for measuring the effect of the propeptide were conducted on COS-7 cells (cell line derived from kidney fibroblasts of African green monkey Cercopithecus aethiops). These cells are sown at a density of 20 000 cells/dish with diameter of 35 mm, 24 hours before being transfected by the DEAE-dextran method with 1 μg of pIRES-EGFP-TREK-1 plasmid. Measurements of current were taken 48 to 72 hours after transfection.
Culture of the COS-7 cells. The COS-7 cells (ATCC reference: CRL-1651) are cultivated in DMEM medium (Gibco)/10% fetal calf serum (FCS, ICN), at 37° C. in the presence of 5% CO2.
Transfection using DEAE dextran. On day 1, the COS-7 cells are sown at 20 000 cells per 35-mm diameter dish containing 2 ml of culture medium. On day 2, the medium is removed and the cells are covered with 200 μl of PBS (Gibco) containing 1 μg of pIRES-EGFP-TREK-1 plasmid and 100 μg of DEAE-dextran (Sigma) then placed at 37° C./5% CO2. After incubation for 30 minutes, 2 ml of medium DMEM/10% NuSerum/80 μM chloroquin is added. After 3 hours, the medium is replaced with 2 ml of DMEM/10% FCS and the cells are incubated for 48 to 72 hours before being measured by electrophysiological methods.
Electrophysiological measurements: all the measurements are taken at room temperature, i.e. at 21-22° C. The cells that were transfected by the plasmid are detected from the fluorescence emitted by the EGFP after excitation at 480 nm.
The whole-cell patch clamp technique was used for measuring the activity of the TREK-1 channels. The equipment used is the RK 400 patch-clamp amplifier (Axon Instruments, U.S.A.). The patch pipettes with resistance of 1.3 to 8 MΩ are prepared from capillaries of borosilicate glass and are filled with a solution of 155 mM KCl, 3 mM MgCl2, 5 mM EGTA, 10 mM HEPES/KOH pH 7.2.
The cell culture medium is replaced with a solution of 150 mM NaCl, 5 mM KCl, 3 mM MgCl2, 1 mM CaCl2, 10 HEPES/NaOH pH 7.4 containing 10 mM tetraethyl ammonium chloride, 3 mM of 4-aminopyridin. The cells are perfused continuously with this solution. The rest potential of the membrane of the measured cell is fixed at −80 mV.
The variations in voltage are obtained either with a continuous ramp (from −100 to +50 mV) or by potential jumps of 10 mV (from −100 to +40 mV, 1.5 second per jump).
The data obtained were analyzed with the Pclamp software. The currents described in the appended FIG. 2B were obtained at 0 mV, the results expressed are the mean values±standard deviation. The IC50 value was obtained by plotting the experimental data with a sigmoidal function.
The activity of the channel is then measured by the patch-clamp technique in whole-cell configuration as described above.

[1] = system: hippocampus progenitor cells; assay: Neurogenesis (BrdU-positive cells) after 4 days of treatment; type: in vivo, mouse; details: fluoxetine 3 mg/kg
Text: In contrast to many antidepressants now commonly used, the efficacy of action of the peptide of the invention is very rapid. […] 93: 3908-3913 (1996) (28) and with a considerable decrease in neurogenesis in the dentate gyrus (Gould, E., Tanapat, P., McEwen, B. S., Flugge, G., Fuchs, E. “Proliferation of granule cell precursors in the dentate gyrus of adult monkeys is diminished by stress” Proc Natl Acad Sci USA, 95: 3168-3171 (1998)) (29).
The experimental protocol is that described in the material and methods (Supplement) of the work of Santarelli et al., “Requirement of hippocampal neurogenesis for the behavioral effects of antidepressants” Science, 301: 805-809 (2003) (24) apart from the duration of treatment, which is four days.
The increase was evaluated using the one-factor ANOVA test followed by the post-hoc test.

mouse (C57Black/J) = assay: Conditioned motility suppression test (CMST); type: in vivo; details: fluoxetine 3 mg/kg; 30 min after injection
Text: The inventors conducted three types of behavioral experiments that are regarded as classical for determining the antidepressant activity of a substance (Nestler E. J., Gould E., Manji H., Buncan M., Duman R. S., Greshenfeld H. K., Hen, R. et al. “Preclinical models: status of basic research in depression” Biol Psychiatry. 15, 503-528 (2002) (20) and Cryan, J. & Holmes, A. “The ascent of mouse: advances in modeling human depression and anxiety” Nat Rev Drug Discov. 4, 775-790 (2005) (21)). The effects of the propeptide of the present invention were compared with those of the saline solution in which it is dissolved and with those of fluoxetine, one of the most-used antidepressants in clinical practice. The mouse strain used is C57Black/J strain. TREK-1^−/− mice were also measured in these various tests.
In the next two tests, the propeptide of the present invention was administered by the IV route at a rate of 100 μl at 1 μM per animal.
C. Conditioned Motility Suppression Test (CMST) (see Daugé, V., Sebret, A., Beslot, F., Matsui, T., & Rogues B. “Behavioral profile of CCK2 receptor-deficient mice” Neuropsychopharmacol; 25: 690-698 (2001) (23).
The experiment consists of conditioning the mouse on day 1, and measuring the effects of the substances on day 2.
On day 1, each mouse is placed in a box where the floor is a metal grille connected to an electric stimulator. […]

Compound	current density at 0 mV (TREK-1 channel) [pA/pF]	neurogenesis relative to physiological saline [1]	motility relative to untreated shocked mice (mouse (C57Black/J)) [times greater]
CCCCC/C=C\C/C=C\C/C=C\C/C=C\CCCC(=O)O [arachidonic acid, reference compound]	130		
CNCCC(Oc1ccc(C(F)(F)F)cc1)c1ccccc1 (stereo not drawn) [fluoxetine, reference compound]		identical to that induced by the injection of physiological saline solution	5

Source: patent publication US8252748B2, “Peptide derived from neurotensin receptor 3 and use thereof in the treatment of psychiatric diseases” (Centre National de la Recherche Scientifique—CNRS, priority 2007, dated 2012)
